The nature of data set [1]: head-to-tail type lactamisation of side-chain-protected branched depsipeptide (Gly10 N-terminus of ester branch + C-terminal Pro9), HATU/DIPEA (pH ~10), microwave. The note with it: the molecule shown is the open-chain precursor, DCM, 6.0 mM, 70.0 °C, 1.0 h.
Data set [2] can be described thus: tail-to-side-chain lactamisation of side-chain-protected peptide (Dap2 beta-NH2 + C-terminal Pro), HATU/DIPEA, microwave. The note with it: the molecule shown is the open-chain precursor; 28-membered ring; DCM; 6.0 mM; 70.0 °C; 1.0 h.
Data set [3] is described as follows: TLC precursor-binding assay with C55-P. Also on record: key to C55-P (TLC binding): “+” indicates binding confirmed; “-” indicates no binding; “~” indicates potential binding with absence of precursor band. The conditions noted are these: peptide 0.5, 1, 2 equiv. with C55-P in Tris·HCl pH 7.5, 50 mM CaCl2, 1 h; silica TLC. As for the experimental part: (§1) Lipid II and undecaprenyl phosphate (C55-P) (1 equiv., 30 µL) in Tris•HCl buffer (0.2% Triton X-100, 26 mM MgCl2, and 50 mM CaCl2 at pH 7.5) were incubated with the peptides (0.5, 1, 2 equiv.) or nisin (0.1, 0.5, 1 equiv.) in 30 µL water for 1 h. The reaction was then extracted with ^tBuOH/6 M PyOAc (2/1 v/v, 100 µL) and the organic phase was dried using an Eppendorf vacuum centrifuge 5301 (Fisher Scientific, Loughborough, UK) under reduced pressure. The solid was redissolved in CHCl3/MeOH (1/1 v/v, 30–60 µL) for spotting onto the TLC plates. In addition to the peptide–lipid mixtures, a control of each peptide/nisin with 30 µL buffer, and a control of each lipid with 30 µL HPLC-grade water were also incubated and subjected to the same workup. Silica TLC plates were run in a CHCl3/MeOH/H2O/NH3 (88/48/10/1 v/v) solvent system and stained using iodine vapour, phosphomolybdic acid (PMA), or KMnO4 stain, as well as visualisation at 254 nm and 365 nm.

In a further data set the test system is B. subtilis 168. In kind it is cell-based. The conditions noted are these: 168, 24 h. As for the experimental part:
MICs were measured in triplicate by microbroth dilution. An overnight culture of B. subtilis 168 (DSMZ German Collection of Microorganisms and Cell Cultures GmbH) was inoculated at 5 × 10^5 CFU/mL in cation-adjusted Mueller–Hinton broth (MHB II) with or without 15 mM or 100 mM CaCl2. Serial two-fold peptide dilutions (128 - 1 µg/mL for analogues and 16 - 0.25 µg/mL for daptomycin) were incubated in polypropylene U-bottom 96-well plates (200 µL final volume) at 37 °C for 24 h. MIC was the lowest concentration at which no growth was observed. Optical density measurements at 620 nm were performed using a Thermo Scientific Multiskan FC (Thermo Fisher Scientific Inc., Paisley, UK). MIC was determined from the lowest concentration at which no tubidity was observed, using an untreated positive growth control, and a broth-only sterility control as references.

The nature of data set [4]: TLC precursor-binding assay with lipid II. Further details: key to Lipid II (TLC binding): “+” indicates binding confirmed; “-” indicates no binding; “~” indicates potential binding with absence of precursor band. The note with it: peptide 0.5, 1, 2 equiv. (nisin 0.1, 0.5, 1 equiv.) with lipid II in Tris·HCl pH 7.5, 50 mM CaCl2, 1 h; silica TLC. As for the experimental part: as §1

On the set-up of data set [5]: key: “+” indicates binding confirmed; “-” indicates no binding; “~” indicates potential binding with absence of precursor band. The note with it: Table S2; ref SI [7], [9], [10]; cited from earlier work. An excerpt: page 11: Table S2: Summary of the ability of CDAs to bind cell wall synthesis precursors, as well as tendency to induce membrane depolarisation. “+” indicates binding, “-” indicates no binding, “n.d.” indicates binding has not been determined. * indicates binding occurs in the presence of phosphatidylglycerol. Peptide C -P C-PP Lipid I Lipid II Membrane 55 55 Depolarisation Daptomycin [1]–[4] + * + * n.d. + * + A54145 [5] n.d. n.d. n.d. n.d. + Tsushimycin [4] + n.d. n.d. n.d. n.d. Laspartomycin [6] + n.d. n.d. n.d. - Friulimicin [7] + - - - - Taromycin n.d. n.d. n.d. n.d. n.d. Amphomycin [9], ...

≈ marks a conversion by molar mass, not a printed value. Bridge positions count the residues as written; N and C are the ends. Square brackets hold non-standard residues; d marks the D form. Peptide text beside a SMILES is read from it. * marks the point of attachment. Decanoyl = CCCCCCCCCC(=O)*; Dap = NC[C@H](N)C(=O)O

As to `CCCCCCCCCC(=O)NC[C@@H](C)C(=O)NCC(=O)N[C@H](CCC(=O)OC(C)(C)C)C(=O)N[C@@H](Cc1ccc(OC(C)(C)C)cc1)C(=O)N[C@H](C(=O)N[C@@H](C(=O)N[C@@H](CC(=O)OC(C)(C)C)C(=O)N[C@@H](CC(=O)OC(C)(C)C)C(=O)N1CCC[C@H]1C(=O)O)[C@H](C)CC)[C@@H](C)OC(=O)CN(C)C(=O)[C@H](CC(=O)OC(C)(C)C)NC(=O)CNC(=O)[C@H](CC(=O)OC(C)(C)C)NC(=O)CN`, the ring closure, overall yield in data set [1] (31-membered ring) was 0.3%.

On to `CCCCCCCCCC(=O)NC[C@@H](C)C(=O)NCC(=O)N[C@H](CCC(=O)OC(C)(C)C)C(=O)N[C@@H](Cc1ccc(OC(C)(C)C)cc1)C(=O)N[C@H](C(=O)N[C@@H](C(=O)N[C@@H](CC(=O)OC(C)(C)C)C(=O)N[C@@H](CC(=O)OC(C)(C)C)C(=O)N1CCC[C@H]1C(=O)O)[C@H](C)CC)[C@@H](C)OC(=O)CN(C)C(=O)[C@H](CC(=O)OC(C)(C)C)NC(=O)[C@@H](CC(=O)OC(C)(C)C)NC(=O)CN`, for which, in data set [1] (28-membered ring), the ring closure, overall yield was 0.3%. For the molecule `CCCCCCCCCC(=O)NC[C@@H](C)C(=O)NCC(=O)N[C@H](CCC(=O)OC(C)(C)C)C(=O)N[C@@H](Cc1ccc(OC(C)(C)C)cc1)C(=O)N[C@H](C(=O)N[C@@H](C(=O)N[C@@H](CC(=O)OC(C)(C)C)C(=O)N[C@@H](CC(=O)OC(C)(C)C)C(=O)N1CCC[C@H]1C(=O)O)[C@H](C)CC)[C@@H](C)OC(=O)CN(C)C(=O)[C@H](CC(=O)OC(C)(C)C)NC(=O)[C@@H](CCC(=O)OC(C)(C)C)NC(=O)CN`, the ring closure, overall yield in data set [1] (28-membered ring) stood at 0.4%.

With `CCCCCCCCCC(=O)NC[C@@H](C)C(=O)NCC(=O)N[C@H](CCC(=O)OC(C)(C)C)C(=O)N[C@@H](Cc1ccc(OC(C)(C)C)cc1)C(=O)N[C@H](C(=O)N[C@@H](C(=O)N[C@@H](CC(=O)OC(C)(C)C)C(=O)N[C@@H](CC(=O)OC(C)(C)C)C(=O)N1CCC[C@H]1C(=O)O)[C@H](C)CC)[C@@H](C)OC(=O)CN(C)C(=O)[C@H](CC(=O)OC(C)(C)C)NC(=O)[C@H](CC(=O)OC(C)(C)C)NC(=O)CN`, in data set [1] (28-membered ring), the ring closure, overall yield was 0.4%. Same read-out and setting: in the case of `CCCCCCCCCC(=O)NC[C@@H](C)C(=O)NCC(=O)N[C@H](CCC(=O)OC(C)(C)C)C(=O)N[C@@H](Cc1ccc(OC(C)(C)C)cc1)C(=O)N[C@H](C(=O)N[C@@H](C(=O)N[C@@H](CC(=O)OC(C)(C)C)C(=O)N[C@@H](CC(=O)OC(C)(C)C)C(=O)N1CCC[C@H]1C(=O)O)[C@H](C)CC)[C@@H](C)OC(=O)CN(C)C(=O)[C@H](CC(=O)OC(C)(C)C)NC(=O)[C@H](CCC(=O)OC(C)(C)C)NC(=O)CN` it was 0.2%.

On to `CCCCCCCCCC(=O)NC[C@@H](C)C(=O)NCC(=O)N[C@H](CCC(=O)OC(C)(C)C)C(=O)N[C@@H](Cc1ccc(OC(C)(C)C)cc1)C(=O)N[C@H](C(=O)N[C@@H](C(=O)N[C@@H](CC(=O)OC(C)(C)C)C(=O)N[C@@H](CC(=O)OC(C)(C)C)C(=O)N1CCC[C@H]1C(=O)O)[C@H](C)CC)[C@@H](C)OC(=O)CN(C)C(=O)[C@H](CCC(=O)OC(C)(C)C)NC(=O)CNC(=O)[C@@H](CCC(=O)OC(C)(C)C)NC(=O)CN`, for which the ring closure, overall yield in data set [1] (31-membered ring) turned out to be 0.3%.

On to `CCCCCCCCCC(=O)NC[C@@H](C)C(=O)NCC(=O)N[C@H](CCC(=O)OC(C)(C)C)C(=O)N[C@@H](Cc1ccc(OC(C)(C)C)cc1)C(=O)N[C@H](C(=O)N[C@@H](C(=O)N[C@@H](CC(=O)OC(C)(C)C)C(=O)N[C@@H](CC(=O)OC(C)(C)C)C(=O)N1CCC[C@H]1C(=O)O)[C@H](C)CC)[C@@H](C)OC(=O)CN(C)C(=O)[C@H](CCC(=O)OC(C)(C)C)NC(=O)[C@@H](CC(=O)OC(C)(C)C)NC(=O)CN`, for which, in data set [1] (28-membered ring), the ring closure, overall yield amounted to 0.3%. Regarding `CCCCCCCCCC(=O)NC[C@@H](C)C(=O)NCC(=O)N[C@H](CCC(=O)OC(C)(C)C)C(=O)N[C@@H](Cc1ccc(OC(C)(C)C)cc1)C(=O)N[C@H](C(=O)N[C@@H](C(=O)N[C@@H](CC(=O)OC(C)(C)C)C(=O)N[C@@H](CC(=O)OC(C)(C)C)C(=O)N1CCC[C@H]1C(=O)O)[C@H](C)CC)[C@@H](C)OC(=O)CN(C)C(=O)[C@H](CCC(=O)OC(C)(C)C)NC(=O)[C@@H](CCC(=O)OC(C)(C)C)NC(=O)CN`, in data set [1] (28-membered ring), the ring closure, overall yield stood at 0.5%. With `CCCCCCCCCC(=O)NC[C@@H](C)C(=O)NCC(=O)N[C@H](CCC(=O)OC(C)(C)C)C(=O)N[C@@H](Cc1ccc(OC(C)(C)C)cc1)C(=O)N[C@H](C(=O)N[C@@H](C(=O)N[C@@H](CC(=O)OC(C)(C)C)C(=O)N[C@@H](CC(=O)OC(C)(C)C)C(=O)N1CCC[C@H]1C(=O)O)[C@H](C)CC)[C@@H](C)OC(=O)CN(C)C(=O)[C@H](CCC(=O)OC(C)(C)C)NC(=O)[C@H](CC(=O)OC(C)(C)C)NC(=O)CN`, the ring closure, overall yield in data set [1] (28-membered ring) was 0.2%. Take `CCCCCCCCCC(=O)NC[C@@H](C)C(=O)NCC(=O)N[C@H](CCC(=O)OC(C)(C)C)C(=O)N[C@@H](Cc1ccc(OC(C)(C)C)cc1)C(=O)N[C@H](C(=O)N[C@@H](C(=O)N[C@@H](CC(=O)OC(C)(C)C)C(=O)N[C@@H](CC(=O)OC(C)(C)C)C(=O)N1CCC[C@H]1C(=O)O)[C@H](C)CC)[C@@H](C)OC(=O)CN(C)C(=O)[C@H](CCC(=O)OC(C)(C)C)NC(=O)[C@H](CCC(=O)OC(C)(C)C)NC(=O)CN`: the ring closure, overall yield in data set [1] (28-membered ring) stood at 1%. Consider `CCCCCCCCCC(=O)N[C@@H](CC(=O)OC(C)(C)C)C(=O)N[C@@H](CN)C(=O)N[C@@H](C(=O)N[C@@H](CCCCNC(=O)OC(C)(C)C)C(=O)N[C@@H](CC(=O)OC(C)(C)C)C(=O)N[C@@H](CC(=O)OC(C)(C)C)C(=O)N(CC(=O)N[C@H](CC(=O)OC(C)(C)C)C(=O)N[C@H](C(=O)N1CCC[C@H]1C(=O)O)C(C)C)Cc1ccc(OC)cc1OC)C(C)C`, for which the ring closure, overall yield in data set [2] came to 1.3%. Turning to `CCCCCCCCCC(=O)N[C@@H](CC(=O)O)C(=O)N[C@H]1CNC(=O)[C@@H]2CCCN2C(=O)[C@H](C(C)C)NC(=O)CNC(=O)[C@@H](CC(=O)O)NC(=O)CNC(=O)[C@H](CC(=O)O)NC(=O)[C@H](CC(=O)O)NC(=O)[C@H](CCCCN)NC(=O)[C@@H](C(C)C)NC1=O` [Peptide M4] (Decanoyl-D[Dap][dV]KDDG[dD]GVP; lactam 2-C), the “C55-P (TLC binding)” value in data set [3] is “-”. In addition, in the data set with B. subtilis 168, the “MIC + Ca^2+” value amounted to 128 µg/mL and the “MIC − Ca^2+” value was 128 µg/mL (≈ 103 µM). In data set [4], the “Lipid II (TLC binding)” value is “-”.

With `CCCCCCCCCC(=O)N[C@@H](CC(=O)O)C(=O)N[C@H]1CNC(=O)[C@@H]2CCCN2C(=O)[C@H](C(C)C)NC(=O)CNC(=O)[C@H](CC(=O)O)NC(=O)CNC(=O)[C@H](CC(=O)O)NC(=O)[C@H](CC(=O)O)NC(=O)[C@H](CCCCN)NC(=O)[C@@H](C(C)C)NC1=O` [Peptide M5] (Decanoyl-D[Dap][dV]KDDGDGVP; lactam 2-C), the “C55-P (TLC binding)” value in data set [3] is on record as “-”. In the data set with B. subtilis 168, the “MIC + Ca^2+” value came out at 128 µg/mL and the “MIC − Ca^2+” value is listed as 128 µg/mL (≈ 103 µM). The “Lipid II (TLC binding)” value in data set [4] was “-”. For Amphomycin, the “Lipid I binding (reported)” value in data set [5] was “-”.

Turning to Friulimicin, the “Lipid I binding (reported)” value in data set [5] is given as “-”.
